Our source for the melting point, inhibition and IC50 values is patent US9527832B2, “Substituted condensed pyrimidine compounds” (GRÜNENTHAL GMBH, priority 2013, dated 2016).

One series addresses T1, human PDE4B1 (Homo sapiens, UniProt Q07343).
T1 construct: host or cells: Sf9 cells
As to the kind of experiment: cAMP HTRF assay to determine the activity of hPDE4B1. The series is classed as biochemical. The conditions noted are these: for inhibition at 1 µM: Percentage inhibition of PDE4B at 1 μM test concentration; for IC50: dose response measurements with eight concentrations, reported as ranges, read-out: IC50. In short, it runs like this: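 Sf9-expressed recombinant human PDE4B1 (4.8 U) in Tris-HCl/MgCl2/DTT/Tween 20 buffer pH 7.8, with cAMP at 40 nM final, 30 min at room temperature. Reaction stopped with IBMX 1 mM; remaining cAMP detected by HTRF (665/620 nm ratio). IC50 from eight-point dose-response, n=2.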
Background: Time-resolved FRET reads energy transfer from a long-lived donor to a nearby acceptor.

T1 sequence (Q07343 whole entry): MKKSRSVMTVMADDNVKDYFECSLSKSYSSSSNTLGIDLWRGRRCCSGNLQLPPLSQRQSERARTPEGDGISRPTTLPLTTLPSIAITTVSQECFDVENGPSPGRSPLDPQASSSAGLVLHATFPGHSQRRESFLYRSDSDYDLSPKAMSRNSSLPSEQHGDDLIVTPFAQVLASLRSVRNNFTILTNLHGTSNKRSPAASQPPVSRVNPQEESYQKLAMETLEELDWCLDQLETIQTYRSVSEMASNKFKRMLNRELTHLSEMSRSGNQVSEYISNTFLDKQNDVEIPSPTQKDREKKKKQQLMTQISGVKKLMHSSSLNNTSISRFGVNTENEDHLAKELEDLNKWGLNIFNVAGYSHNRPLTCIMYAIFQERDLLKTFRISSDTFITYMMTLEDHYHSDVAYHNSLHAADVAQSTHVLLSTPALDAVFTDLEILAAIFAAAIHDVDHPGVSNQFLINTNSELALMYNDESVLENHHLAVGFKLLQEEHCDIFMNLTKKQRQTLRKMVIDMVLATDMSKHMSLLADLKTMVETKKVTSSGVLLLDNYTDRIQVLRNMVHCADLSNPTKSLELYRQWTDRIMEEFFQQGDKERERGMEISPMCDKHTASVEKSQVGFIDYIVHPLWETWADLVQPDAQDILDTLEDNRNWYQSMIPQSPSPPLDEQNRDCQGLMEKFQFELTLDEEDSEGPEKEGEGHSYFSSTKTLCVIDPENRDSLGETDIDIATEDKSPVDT

A word on the melting point: it is the temperature, or range, at which the solid turns liquid. As a reminder, the inhibition is the change of the read-out against control, counted positive when it falls. What is called IC50 is the concentration that gives 50% inhibition. The molecule `COc1ccc(-c2nc3c(c(N4CCc5cc(CC(=O)O)ccc54)n2)CS(=O)(=O)C3)cc1F` [Compound No. 1-10, 2-(1-(2-(3-Fluoro-4-methoxy-phenyl)-6,6-dioxo-5,7-dihydro-thieno[3,4-d]pyrimidin-4-yl)-2,3-dihydro-1H-indol-5-yl)acetic acid] had a melting point of 192 to 195 °C. Besides, on human PDE4B1, the inhibition at 1 µM is 96% and the IC50 was less than 100 nM.
In the same order, the values of `COc1ccc(-c2nc3c(c(N4CCc5cc(CC(=O)O)ccc54)n2)CS(=O)(=O)C3)cc1Cl` [Compound No. 1-11, 2-(1-(2-(3-Chloro-4-methoxy-phenyl)-6,6-dioxo-5,7-dihydro-thieno[3,4-d]pyrimidin-4-yl)-2,3-dihydro-1H-indol-5-yl)acetic acid] are 245 to 247 °C, 100% and less than 100 nM.
In the case of `COc1ccc(-c2nc3c(c(N4CCc5cc(CC(=O)O)ccc54)n2)CS(=O)(=O)C3)cc1` [Compound No. 1-12, 2-(1-(2-(4-Methoxyphenyl)-6,6-dioxo-5,7-dihydro-thieno[3,4-d]pyrimidin-4-yl)-2,3-dihydro-1H-indol-5-yl)acetic acid], the melting point was 239 to 243 °C. Besides, on human PDE4B1, the inhibition at 1 µM was found to be 108% and the half-maximal inhibitory concentration (IC50) is less than 100 nM.
For `COc1ccc(-c2nc3c(c(N4CCc5c(OCC(=O)N(C)C)cccc54)n2)CS(=O)(=O)C3)cc1` [Compound No. 2-2, 2-((1-(2-(4-Methoxyphenyl)-6,6-dioxo-5,7-dihydro-thieno[3,4-d]pyrimidin-4-yl)-2,3-dihydro-1H-indol-4-yl)oxy)-N,N-dimethyl-acetamide], the melting point fell in the range of 225 to 232 °C.
Same read-out and setting: to `CN(C)C(=O)COc1cccc2c1CCN2c1nc(-c2cccc(F)c2)nc2c1CS(=O)(=O)C2` [Compound No. 2-4, 2-((1-(2-(3-Fluorophenyl)-6,6-dioxo-5,7-dihydro-thieno[3,4-d]pyrimidin-4-yl)-2,3-dihydro-1H-indol-4-yl)oxy)-N,N-dimethyl-acetamide] belongs 237 to 245 °C; to `CN(C)C(=O)COc1cccc2c1CCN2c1nc(-c2cccc(Cl)c2)nc2c1CS(=O)(=O)C2` [Compound No. 2-6, 2-((1-(2-(3-Chlorophenyl)-6,6-dioxo-5,7-dihydro-thieno[3,4-d]pyrimidin-4-yl)-2,3-dihydro-1H-indol-4-yl)oxy)-N,N-dimethyl-acetamide], 222 to 226 °C; to `COc1ccc(-c2nc3c(c(N4CCc5c(OCC(=O)N(C)C)cccc54)n2)CS(=O)(=O)C3)cc1F` [Compound No. 2-10, 2-((1-(2-(3-Fluoro-4-methoxy-phenyl)-6,6-dioxo-5,7-dihydro-thieno[3,4-d]pyrimidin-4-yl)-2,3-dihydro-1H-indol-4-yl)oxy)-N,N-dimethyl-acetamide], 231 to 233 °C.
Take `CN(C)C(=O)COc1cccc2c1CCN2c1nc(-c2ccc(F)c(F)c2)nc2c1CS(=O)(=O)C2` [Compound No. 2-12, 2-((1-(2-(3,4-Difluoro-phenyl)-6,6-dioxo-5,7-dihydro-thieno[3,4-d]pyrimidin-4-yl)-2,3-dihydro-1H-indol-4-yl)oxy)-N,N-dimethyl-acetamide]: the melting point fell in the range of 212 to 217 °C.
Consider `O=C(COc1ccc2c(c1)N(c1nc(-c3ccc(Cl)s3)nc3c1CCC3)CC2)N1CCCC1` [Compound No. 2-142, 2-((1-(2-(5-Chlorothiophen-2-yl)-6,7-dihydro-5H-cyclopenta[d]pyrimidin-4-yl)indolin-6-yl)oxy)-1-(pyrrolidin-1-yl)ethanone], for which the melting point was 209 to 212 °C. For the same molecule, on human PDE4B1, the inhibition at 1 µM stood at 61% and the IC50 was 100 to 1000 nM.
For `CNC(=O)Cc1ccc2c(c1)CCN2c1nc(-c2ccc(Cl)s2)nc2c1CS(=O)(=O)C2` [Compound No. 3-5, 2-(1-(2-(5-Chlorothiophen-2-yl)-6,6-dioxido-5,7-dihydrothieno[3,4-d]pyrimidin-4-yl)indolin-5-yl)-N-methylacetamide], the IC50 on human PDE4B1 lay within 100 to 1000 nM.
As for `NC(=O)Cc1ccc2c(c1)CCN2c1nc(-c2ccc(Cl)s2)nc2c1CS(=O)(=O)C2` [Compound No. 3-6, 2-(1-(2-(5-Chlorothiophen-2-yl)-6,6-dioxido-5,7-dihydrothieno[3,4-d]pyrimidin-4-yl)indolin-5-yl)acetamide], on human PDE4B1, the inhibition at 1 µM was 103% and the 50% inhibitory concentration (IC50) was less than 100 nM.
In the case of `CN(C)CCOc1ccc2c(c1)N(c1nc(-c3ccc(Cl)s3)nc3c1CCC3)CC2` [Compound No. 3-7, 2-((1-(2-(5-Chlorothiophen-2-yl)-6,7-dihydro-5H-cyclopenta[d]-pyrimidin-4-yl)indolin-6-yl)oxy)-N,N-dimethylethanamine], the inhibition at 1 µM against human PDE4B1 is 48%.
On the same count and under the same terms, the result for `CN(C)C(=O)Cc1ccc2c(c1)CCN2c1nc(-c2ccc(Cl)s2)nc2c1CS(=O)(=O)C2` [Compound No. 3-8, 2-(1-(2-(5-Chlorothiophen-2-yl)-6,6-dioxido-5,7-dihydrothieno[3,4-d]pyrimidin-4-yl)indolin-5-yl)-N,N-dimethylacetamide] reads 32%.
